US4108991A, “N-aminosulfenyl derivatives of aldicarb” (priority 1976, dated 1978)

Legend:
[1] = test system: Confused flour beetle; experiment: Initial contact activity, sprayed dishes, confused flour beetle; format: in vivo, Tribolium confusum duVal; conditions: Tribolium confusum, initial, FB, 48 hours, read-out: Percent Kill
Description: (§1) Initial Contact Activity: One half gram of test compound was dissolved in 40 ml of acetone and this solution was dispersed in 360 ml of water containing one drop of isooctylphenyl polyethoxyethanol. Aliquots of this solution, which corresponds to 1250 ppm of active ingredient, were diluted with an appropriate amount of water to provide solutions containing various concentrations of active ingredient. Test organisms and techniques were as follows: The activity against the Mexican bean beetle (Epilachna varivestis Muls.) and the southern armyworm (Spodoptera eridania [Cram.]) was evaluated by dipping the leaves of pinto bean plants into the test solution and infesting the leaves with the appropriate immature-form insects when the foiliage had dried; the activity against the pea aphid (Acyrthosiphon pisum [Harris]) was evaluated on broad bean plants whose leaves were dipped before infestation with adult aphids; the activity against two-sotted spider mites (Tetranychus urticae Koch) was evaluated on pinto bean plants whose leaves were dipped after infestation with adult mites; the activity against the milkweed bug (Oncopeltus fasciatus [Dallas]), and the plum curculio (Conotrachelus nenuphar [Herbst]) was evaluated by spraying the test solutions into glass dishes or jars containing the adult insects; the activity against the confused flour beetle (Tribolium confusum duVal) was evaluated by introducing the insects into glass dishes which had been previously sprayed with test solution and allowed to dry. All organisms in the test were maintained in a holding room at 80° F and 50% relative humidity for an exposure period of 48 hours. At the end of this time, the dead and living insects or mites were counted, and the percent kill was calculated.

[2] = test system: Southern armyworm; experiment: Systemic activity, soil-watering, southern armyworm; format: in vivo, Spodoptera eridania [Cram.]; conditions: Spodoptera eridania, 48 h, systemic, AW, read-out: Percent Kill
Description: as §1
(§2) Systemic Activity: Systemic activity was measured using a soil-watering technique. Test organisms were Mexican bean beetle, southern armyworm, pea aphid, and mites on plants as described above in this Example. With appropriate precautions to avoid contact of the solution with the test plant surfaces, 25 ml of a test solution, prepared as above to contain the desired amount of active ingredient, were poured evenly over the surface of the soil in which the plant was growing. The treated plants were maintained under normal growing conditions for three days to permit translocation of the toxicant, after which the leaves were infested. Two days after infestation, counts of living and dead insects were made.

[3] = test system: Granary Weevil; experiment: Residual (7-day) contact activity, granary weevil; format: in vivo; conditions: Sitophilus granarius, 168 h, residual 7-day, GW, read-out: Percent Kill
[4] = test system: Granary Weevil; experiment: Initial contact activity, granary weevil; format: in vivo; conditions: Sitophilus granarius, 48 h, initial, GW, 48 hours, read-out: Percent Kill
[5] = test system: Milkweed bug; experiment: Residual (7-day) contact activity, milkweed bug; format: in vivo, Oncopeltus fasciatus [Dallas]; conditions: Oncopeltus fasciatus, 168 h, residual 7-day, MWB, read-out: Percent Kill
Description: as §1
(§3) Residual Contact Activity: The residual contact activity of the compounds was determined on the same organisms using the techniques described above, except that in each case the treated surface was allowed to dry and was exposed to normal light and air for seven days before introduction of the mites or insects.

[6] = test system: Mexican bean beetle; experiment: Residual (7-day) contact activity, Mexican bean beetle; format: in vivo, Epilachna varivestis Muls.; conditions: Epilachna varivestis, 168 h, residual 7-day, BB, read-out: Percent Kill
Description: as §1, §3

[7] = test system: Confused flour beetle; experiment: Residual (7-day) contact activity, confused flour beetle; format: in vivo, Tribolium confusum duVal; conditions: Tribolium confusum, 168 h, residual 7-day, FB, read-out: Percent Kill
Description: as §1, §3

[8] = test system: Mexican bean beetle; experiment: Initial contact activity, leaf dip, Mexican bean beetle; format: in vivo, Epilachna varivestis Muls.; conditions: Epilachna varivestis, foliar, 48 h, initial, BB, 48 hours, read-out: Percent Kill
Description: as §1

[9] = test system: Pea aphid; experiment: Systemic activity, soil-watering, pea aphid; format: in vivo, Acyrthosiphon pisum [Harris]; conditions: Acyrthosiphon pisum, 48 h, systemic, PA, read-out: Percent Kill
Description: as §1, §2

[10] = test system: Plum curculio; experiment: Initial contact activity, spray, plum curculio; format: in vivo, Conotrachelus nenuphar [Herbst]; conditions: Conotrachelus nenuphar, initial, PC, 48 hours, read-out: Percent Kill
Description: as §1

[11] = test system: Two-spotted spider mite; experiment: Initial contact activity, leaf dip, two-spotted spider mite; format: in vivo, Tetranychus urticae Koch; conditions: Tetranychus urticae, foliar, 48 h, initial, SM, 48 hours, read-out: Percent Kill
Description: as §1

[12] = test system: Milkweed bug; experiment: Initial contact activity, spray, milkweed bug; format: in vivo, Oncopeltus fasciatus [Dallas]; conditions: Oncopeltus fasciatus, 48 h, initial, MWB, 48 hours, read-out: Percent Kill
Description: as §1

[13] = test system: Two-spotted spider mite; experiment: Systemic activity, soil-watering, two-spotted spider mite; format: in vivo, Tetranychus urticae Koch; conditions: Tetranychus urticae, 48 h, systemic, SM, read-out: Percent Kill
Description: as §1, §2

[14] = Toxicity to rats, acute oral median lethal dose (LD50), Method A; format: in vivo, young female albino rats, derived from Sprague-Dawley stock; conditions: in vivo, rat, corn oil, 14 days observation
Description: (§4) Method A: Young female albino rats, derived from Sprague-Dawley stock and weighing between 175 and 200 g, were used. An initial screening was conducted to determine the general level of toxicity of the test compounds and to establish the dosing range to be used with each compound. The test materials were suspended in corn oil and administered directly into the stomachs of the rats, using a hypodermic syringe equipped with a ball-tipped intubating needle. A range of dosing levels was employed utilizing two rats at each level. […] This method was used to determine the toxicity to rats of the compounds of Examples I, II, and III and aldicarb.

[15] = test system: rats; experiment: as above; format: in vivo, young female albino rats, derived from Sprague-Dawley stock; conditions: rat; for Enhancement LD50 Derivative/LD50 Aldicarb: ratio to aldicarb
Description: as §4

`CSC(C)(C)C=NOC(=O)N(C)SN(C)Cc1ccccc1` [Example I, 2-methyl-2-(methylthio)propanol O-[(N-benzyl-N-methylaminosulfenyl)(methyl)carbamoyl]oxime] gave a mortality at 156 ppm [1] of 5%, a mortality at 312 ppm [1] of 5% and a mortality at 1250 ppm [1] of 2.5%. The mortality at 312 ppm [2] was 50%, the mortality at 625 ppm [2] was 84% and the mortality at 312 ppm [3] was 41%. For the same molecule, the mortality at 1250 ppm [3] was 100%, the mortality at 156 ppm [4] was 100% and the mortality at 312 ppm [4] was 100%. It also gave a mortality at 1250 ppm [4] of 100%, a mortality at 156 ppm [5] of 90% and a mortality at 312 ppm [5] of 95%. For the same molecule, the mortality at 1250 ppm [5] was 100%, the mortality at 312 ppm [6] was 0% and the mortality at 1250 ppm [6] was 89%. The mortality at 312 ppm [7] was 0%, the mortality at 1250 ppm [7] was 2.6% and the mortality at 156 ppm [8] was 82%. The mortality at 312 ppm [8] was 94%, the mortality at 625 ppm [8] was 100% and the mortality at 1250 ppm [8] was 100%. For the same molecule, the mortality at 10 ppm [9] was 0%, the mortality at 39 ppm [9] was 100% and the mortality at 10 ppm [10] was 10%. For the same molecule, the mortality at 39 ppm [10] was 0%, the mortality at 156 ppm [10] was 0% and the mortality at 1250 ppm [10] was 45%. The mortality at 10 ppm [11] was 96%, the mortality at 39 ppm [11] was 98% and the mortality at 156 ppm [11] was 100%. The mortality at 1250 ppm [11] was 100%, the mortality at 10 ppm [12] was 5% and the mortality at 39 ppm [12] was 80%. For the same molecule, the mortality at 156 ppm [12] was 100%, the mortality at 1250 ppm [12] was 100% and the mortality at 2.5 ppm [13] was 0.9%. For the same molecule, the mortality at 5 ppm [13] was 2.3%, the mortality at 10 ppm [13] was 4.3% and the LD50 at 336 h [14] was 9.4 mg/kg. The “LD50 relative to that of aldicarb” value [15] was 19 times and the “Enhancement LD50 Derivative/LD50 Aldicarb” value [15] was 19.

In the case of `CSC(C)(C)C=NOC(=O)N(C)SN1CCOCC1` [Example II, 2-methyl-2-(methylthio)propanol O-[(N-methyl-N-morpholinosulfenyl)carbamoyl]oxime], the mortality at 156 ppm [1] is reported as 5%, the mortality at 312 ppm [1] is reported as 51% and the mortality at 1250 ppm [1] is reported as 80%. The mortality at 312 ppm [2] was 100%, the mortality at 625 ppm [2] was 100% and the mortality at 312 ppm [3] was 20%. It also gave a mortality at 1250 ppm [3] of 100%, a mortality at 156 ppm [4] of 100% and a mortality at 312 ppm [4] of 100%. For the same molecule, the mortality at 1250 ppm [4] was 100%, the mortality at 156 ppm [5] was 100% and the mortality at 312 ppm [5] was 100%. The mortality at 1250 ppm [5] was 100%, the mortality at 312 ppm [6] was 88% and the mortality at 1250 ppm [6] was 100%. The mortality at 312 ppm [7] was 0%, the mortality at 1250 ppm [7] was 2.5% and the mortality at 156 ppm [8] was 100%. It also gave a mortality at 312 ppm [8] of 100%, a mortality at 625 ppm [8] of 100% and a mortality at 1250 ppm [8] of 100%. The mortality at 10 ppm [9] was 40%, the mortality at 39 ppm [9] was 100% and the mortality at 10 ppm [10] was 0%. For the same molecule, the mortality at 39 ppm [10] was 5%, the mortality at 156 ppm [10] was 47% and the mortality at 1250 ppm [10] was 100%. It also gave a mortality at 10 ppm [11] of 100%, a mortality at 39 ppm [11] of 100% and a mortality at 156 ppm [11] of 100%. For the same molecule, the mortality at 1250 ppm [11] was 100%, the mortality at 10 ppm [12] was 25% and the mortality at 39 ppm [12] was 100%. It also gave a mortality at 156 ppm [12] of 100%, a mortality at 1250 ppm [12] of 100% and a mortality at 5 ppm [13] of 1.4%. It also gave a mortality at 10 ppm [13] of 38%, a mortality at 39 ppm ([13]; 39 PPM) of 69% and an LD50 at 336 h [14] of 1.2 mg/kg. The “LD50 relative to that of aldicarb” value [15] was 2.4 times and the “Enhancement LD50 Derivative/LD50 Aldicarb” value [15] was 2.4.

Molecule `CCCCN(CCCC)SN(C)C(=O)ON=CC(C)(C)SC` [Example III, 2-methyl-2-(methylthio)propanal O-[(dibutylaminosulfenyl)(methyl)carbamoyl]oxime] has a mortality at 156 ppm [1] of 0%, a mortality at 312 ppm [1] of 7.5% and a mortality at 1250 ppm [1] of 70%. It also gave a mortality at 312 ppm [2] of 0%, a mortality at 625 ppm [2] of 68% and a mortality at 312 ppm [3] of 0%. It also gave a mortality at 1250 ppm [3] of 17%, a mortality at 156 ppm [4] of 100% and a mortality at 312 ppm [4] of 100%. For the same molecule, the mortality at 1250 ppm [4] was 100%, the mortality at 156 ppm [5] was 20% and the mortality at 312 ppm [5] was 70%. The mortality at 1250 ppm [5] was 100%, the mortality at 312 ppm [6] was 0% and the mortality at 1250 ppm [6] was 92%. The mortality at 312 ppm [7] was 0%, the mortality at 1250 ppm [7] was 0% and the mortality at 156 ppm [8] was 40%. The mortality at 312 ppm [8] was 63%, the mortality at 625 ppm [8] was 95% and the mortality at 1250 ppm [8] was 100%. It also gave a mortality at 10 ppm [9] of 0%, a mortality at 39 ppm [9] of 64% and a mortality at 10 ppm [10] of 0%. For the same molecule, the mortality at 39 ppm [10] was 5%, the mortality at 156 ppm [10] was 0% and the mortality at 1250 ppm [10] was 55%. It also gave a mortality at 10 ppm [11] of 98%, a mortality at 39 ppm [11] of 89% and a mortality at 156 ppm [11] of 100%. It also gave a mortality at 1250 ppm [11] of 100%, a mortality at 10 ppm [12] of 5% and a mortality at 39 ppm [12] of 16%. It also gave a mortality at 156 ppm [12] of 100%, a mortality at 1250 ppm [12] of 100% and a mortality at 2.5 ppm [13] of 0.9%. For the same molecule, the mortality at 5 ppm [13] was 0%, the mortality at 10 ppm [13] was 0.7% and the LD50 at 336 h [14] was 12.5 mg/kg. The “LD50 relative to that of aldicarb” value [15] was 25 times and the “Enhancement LD50 Derivative/LD50 Aldicarb” value [15] was 25.
